The source of these data is patent publication US10793563B2, “GCN2 inhibitors and uses thereof” (Merck Patent GmbH, priority 2018, dated 2020).

The target of the first assay is GCN2 kinase (Homo sapiens (Human), UniProt Q9P2K8). Put plainly: GCN2 Enzyme Inhibition Assay (Transcreener ADP2 fluorescence polarization). As to conditions: 280 μM ATP, 200 μM (RS)7 peptide, 4 nM GCN2, 25° C. It is filed as biochemical. The procedure, abridged: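 At 25 °C, GCN2 kinase (typical final concentration 4 nM) and (RS)7 peptide in Tris-HCl pH 7.5 buffer with MgCl2, NaCl and DTT were preincubated with compound for 10 min, then ATP was added for a 1 h reaction. ADP was read by FP with antibody/Alexa633 tracer. Non-linear tight-binding analysis gave IC50 and apparent Ki.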
Chain of GCN2 kinase (Q9P2K8 whole entry): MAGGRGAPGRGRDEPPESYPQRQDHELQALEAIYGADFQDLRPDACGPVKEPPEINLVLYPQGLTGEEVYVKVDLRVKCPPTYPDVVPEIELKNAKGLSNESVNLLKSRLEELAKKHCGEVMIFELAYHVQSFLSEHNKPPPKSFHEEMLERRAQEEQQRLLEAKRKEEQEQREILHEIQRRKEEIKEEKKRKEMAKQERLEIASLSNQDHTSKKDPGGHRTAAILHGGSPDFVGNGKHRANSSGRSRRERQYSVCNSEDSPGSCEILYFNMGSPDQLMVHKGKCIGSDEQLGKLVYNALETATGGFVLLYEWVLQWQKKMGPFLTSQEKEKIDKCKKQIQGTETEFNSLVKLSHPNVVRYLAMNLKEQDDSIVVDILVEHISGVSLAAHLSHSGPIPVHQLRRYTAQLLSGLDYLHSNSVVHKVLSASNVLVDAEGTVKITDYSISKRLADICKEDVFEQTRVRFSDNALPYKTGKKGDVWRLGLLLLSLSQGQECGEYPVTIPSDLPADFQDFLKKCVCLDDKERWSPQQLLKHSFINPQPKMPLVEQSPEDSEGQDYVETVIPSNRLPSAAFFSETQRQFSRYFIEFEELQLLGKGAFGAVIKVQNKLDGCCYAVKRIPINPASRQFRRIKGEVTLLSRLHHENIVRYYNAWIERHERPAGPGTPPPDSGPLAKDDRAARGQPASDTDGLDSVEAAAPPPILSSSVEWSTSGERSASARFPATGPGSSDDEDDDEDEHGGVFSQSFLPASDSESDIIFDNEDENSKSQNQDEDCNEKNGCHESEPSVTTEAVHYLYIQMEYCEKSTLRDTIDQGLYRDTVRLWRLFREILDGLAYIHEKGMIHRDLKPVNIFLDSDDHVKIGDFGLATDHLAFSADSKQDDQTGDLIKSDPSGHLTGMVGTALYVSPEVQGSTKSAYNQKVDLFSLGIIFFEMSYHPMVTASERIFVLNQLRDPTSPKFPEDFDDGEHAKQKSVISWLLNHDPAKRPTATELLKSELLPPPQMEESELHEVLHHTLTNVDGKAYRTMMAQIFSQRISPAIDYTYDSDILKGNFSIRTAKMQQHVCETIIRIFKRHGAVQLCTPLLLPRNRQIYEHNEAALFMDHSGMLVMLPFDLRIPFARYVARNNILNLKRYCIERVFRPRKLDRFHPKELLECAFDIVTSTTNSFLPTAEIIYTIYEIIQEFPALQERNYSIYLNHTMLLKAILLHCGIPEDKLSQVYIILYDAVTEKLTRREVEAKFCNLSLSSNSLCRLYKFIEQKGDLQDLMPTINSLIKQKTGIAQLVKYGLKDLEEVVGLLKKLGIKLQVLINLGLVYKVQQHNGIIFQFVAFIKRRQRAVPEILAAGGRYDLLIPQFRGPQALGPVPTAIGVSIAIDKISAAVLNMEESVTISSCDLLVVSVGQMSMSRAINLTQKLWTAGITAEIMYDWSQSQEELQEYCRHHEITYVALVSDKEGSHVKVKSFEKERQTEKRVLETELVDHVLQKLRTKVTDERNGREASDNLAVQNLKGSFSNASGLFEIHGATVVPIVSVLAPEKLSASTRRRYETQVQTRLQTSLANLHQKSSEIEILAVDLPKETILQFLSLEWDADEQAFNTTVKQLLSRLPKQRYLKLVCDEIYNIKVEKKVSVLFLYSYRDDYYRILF
One may read the IC50 as the concentration needed to halve the response being measured. A higher IC50 goes with weaker potency. `O=C(C1CCOCC1)N1CCN(c2ccnc(-c3cnc4ccc(C(F)(F)F)cn34)n2)CC1c1cn[nH]c1` (stereo not drawn) [I-487, (2-(1H-pyrazol-4-yl)-4-(2-(6-(trifluoromethyl)imidazo[1,2-a]pyridin-3-yl)pyrimidin-4-yl)piperazin-1-yl)(tetrahydro-2H-pyran-4-yl)methanone] showed an IC50 of 100 to 1000 nM.

The compound `CC1C(C(N)=O)NCCN1c1ccnc(-c2cnc3cc(F)c(C4CC4)cn23)n1` (stereo not drawn) [I-427, 4-(2-(6-cyclopropyl-7-fluoroimidazo[1,2-a]pyridin-3-yl)pyrimidin-4-yl)-3-methylpiperazine-2-carboxamide] displayed an IC50 of 10 to 100 nM.

In the case of `C[C@H]1[C@H](CNS(C)(=O)=O)NCCN1c1ccnc(-c2cnc3ccc(C(F)(F)F)cn23)n1` [I-471, N-(((2 S,3 S)-3-methyl-4-(2-(6-(trifluoromethyl)imidazo[1,2-a]pyridin-3-yl)pyrimidin-4-yl)piperazin-2-yl)methyl)methanesulfonamide], the IC50 is 100 to 1000 nM.

Consider `Cc1nnc(C)n1[C@@H]1C[C@@H](C)CN(c2nccc(-c3cnc4ccc(C(F)(F)F)cn34)n2)C1` [I-467, 3-(2-((3R,5R)-3-(3,5-dimethyl-4H-1,2,4-triazol-4-yl)-5-methylpiperidin-1-yl)pyrimidin-4-yl)-6-(trifluoromethyl)imidazo[1,2-a]pyridine], for which the half-inhibitory concentration (IC50) fell in the range of 10 to 100 nM.

`C[C@H]1[C@H](C(N)=O)NCCN1c1ccnc(-c2cnc3cc(F)c(C4CC4)cn23)n1` [I-454, (2R,3 S)-4-(2-(6-cyclopropyl-7-fluoroimidazo[1,2-a]pyridin-3-yl)pyrimidin-4-yl)-3-methylpiperazine-2-carboxamide] displayed an IC50 of 10 to 100 nM.

`N[C@H]1C[C@H](O)CN(c2ccnc(-c3cnc4ccc(C(F)(F)F)cn34)n2)C1` [I-239, (3 S,5S)-5-amino-1-(2-(6-(trifluoromethyl)imidazo[1,2-a]pyridin-3-yl)pyrimidin-4-yl)piperidin-3-ol] came in with an IC50 of 100 to 1000 nM.

In the case of `Cc1nn(C)cc1[C@@H]1C[C@H](C)CN(c2nccc(-c3cnc4ccc(C(F)(F)F)cn34)n2)C1` [I-141, 3-(2-((3S,5S)-3-(1,3-dimethyl-1H-pyrazol-4-yl)-5-methylpiperidin-1-yl)pyrimidin-4-yl)-6-(trifluoromethyl)imidazo[1,2-a]pyridine], the IC50 was 100 to 1000 nM.

Turning to `NC(=O)C1CCCN(c2nc(-c3cnc4ccc(C(F)(F)F)cn34)ncc2F)C1` (stereo in doubt) [I-282, (S)-1-(5-fluoro-2-(6-(trifluoromethyl)imidazo[1,2-a]pyridin-3-yl)pyrimidin-4-yl)piperidine-3-carboxamide], the IC50 lay within 100 to 1000 nM.

As to `Cc1[nH]ncc1[C@H]1CN(c2ccnc(-c3cnc4ccc(C(F)(F)F)cn34)n2)C[C@@H](C)O1` [I-125, (2R,6S)-2-methyl-6-(5-methyl-1H-pyrazol-4-yl)-4-(2-(6-(trifluoromethyl)imidazo[1,2-a]pyridin-3-yl)pyrimidin-4-yl)morpholine], the IC50 was below 10 nM.

`Cc1nn(C)cc1[C@H]1C[C@@H](C)CN(c2nccc(-c3cnc4ccc(C(F)(F)F)cn34)n2)C1` [I-142, 3-(2-((3R,5R)-3-(1,3-dimethyl-1H-pyrazol-4-yl)-5-methylpiperidin-1-yl)pyrimidin-4-yl)-6-(trifluoromethyl)imidazo[1,2-a]pyridine] registered a half-maximal inhibitory concentration (IC50) of 100 to 1000 nM.

For the compound `OCc1cn(C2CCCN(c3ccnc(-c4cnc5ccc(C(F)(F)F)cn45)n3)C2)nn1` (stereo not drawn) [I-382, (1-(1-(2-(6-(trifluoromethyl)imidazo[1,2-a]pyridin-3-yl)pyrimidin-4-yl)piperidin-3-yl)-1H-1,2,3-triazol-4-yl)methanol], the IC50 lay in the range of 100 to 1000 nM.

In the case of `CC(=O)NC1CCCN(c2ccnc(-c3cnc4ccc(C(F)(F)F)cn34)n2)C1` (stereo not drawn) [I-187, N-(1-(2-(6-(trifluoromethyl)imidazo[1,2-a]pyridin-3-yl)pyrimidin-4-yl)piperidin-3-yl)acetamide], the IC50 is 10 to 100 nM.

Compound `Cc1nn(C)cc1[C@H]1CN(c2nccc(-c3cnc4ccc(C(F)(F)F)cn34)n2)C[C@H](C)O1` [I-156, (2S,6S)-2-(1,3-dimethyl-1H-pyrazol-4-yl)-6-methyl-4-(4-(6-(trifluoromethyl)imidazo[1,2-a]pyridin-3-yl)pyrimidin-2-yl)morpholine] returned an IC50 of 100 to 1000 nM.

In turn, `Cc1noc(C)c1C(=O)N1CCN(c2ccnc(-c3cnc4ccc(C(F)(F)F)cn34)n2)CC1c1cn[nH]c1` (stereo not drawn) [I-519, (2-(1H-pyrazol-4-yl)-4-(2-(6-(trifluoromethyl)imidazo[1,2-a]pyridin-3-yl)pyrimidin-4-yl)piperazin-1-yl)(3,5-dimethylisoxazol-4-yl)methanone] gave an IC50 of 100 to 1000 nM.

With `O=C(C1CC12CC2)N1CCN(c2ccnc(-c3cnc4ccc(C(F)(F)F)cn34)n2)CC1c1cn[nH]c1` (stereo not drawn) [I-468, (2-(1H-pyrazol-4-yl)-4-(2-(6-(trifluoromethyl)imidazo[1,2-a]pyridin-3-yl)pyrimidin-4-yl)piperazin-1-yl)(spiro[2.2]pentan-1-yl)methanone], the IC50 is 100 to 1000 nM.

As for `C[C@@H]1CN(c2ccnc(-c3cnc4ccc(C(F)(F)F)cn34)n2)C[C@H](C)N1C(=O)C1CC(F)(F)C1` [I-437, (3,3-difluorocyclobutyl)(cis-2,6-dimethyl-4-(2-(6-(trifluoromethyl)imidazo[1,2-a]pyridin-3-yl)pyrimidin-4-yl)piperazin-1-yl)methanone], the IC50 lay in the range of 100 to 1000 nM.

With `CC1CN(c2ccnc(-c3cnc4ccc(C(F)(F)F)cn34)n2)CC(C#N)O1` (stereo not drawn) [I-331, 6-methyl-4-(2-(6-(trifluoromethyl)imidazo[1,2-a]pyridin-3-yl)pyrimidin-4-yl)morpholine-2-carbonitrile], the IC50 is 100 to 1000 nM.

Take `NC(=O)C1CC(F)CN(c2ccnc(-c3cnc4ccc(C(F)(F)F)cn34)n2)C1` (stereo not drawn) [I-229, 5-fluoro-1-(2-(6-(trifluoromethyl)imidazo[1,2-a]pyridin-3-yl)pyrimidin-4-yl)piperidine-3-carboxamide]: the half-maximal inhibitory concentration (IC50) is below 10 nM.

On to `FC1(F)CCC(N2CCN(c3ccnc(-c4cnc5ccc(C(F)(F)F)cn45)n3)CC2c2cn[nH]c2)CC1` (stereo not drawn) [I-460, 3-(4-(4-(4,4-difluorocyclohexyl)-3-(1H-pyrazol-4-yl)piperazin-1-yl)pyrimidin-2-yl)-6-(trifluoromethyl)imidazo[1,2-a]pyridine], for which the IC50 lay in the range of 10 to 100 nM.

`CC(=O)N1CCN(c2ccnc(-c3cnc4ccc(C(F)(F)F)cn34)n2)CC1(C)C` [I-336, 1-(2,2-dimethyl-4-(2-(6-(trifluoromethyl)imidazo[1,2-a]pyridin-3-yl)pyrimidin-4-yl)piperazin-1-yl)ethan-1-one]: the IC50 lay within 10 to 100 nM.

`CC(C)(C)OC(=O)N1CC2(C1)CN(c1ccnc(-c3cnc4ccc(C(F)(F)F)cn34)n1)CC(C)(C)O2` [I-292, tert-butyl 6,6-dimethyl-8-(2-(6-(trifluoromethyl)imidazo[1,2-a]pyridin-3-yl)pyrimidin-4-yl)-5-oxa-2,8-diazaspiro[3.5]nonane-2-carboxylate] returned an IC50 of 100 to 1000 nM.

In the case of `Cc1nnc(C2CN(c3ccnc(-c4cnc5ccc(C(F)(F)F)cn45)n3)CCN2)[nH]1` (stereo not drawn) [I-337, 3-(4-(3-(5-methyl-4H-1,2,4-triazol-3-yl)piperazin-1-yl)pyrimidin-2-yl)-6-(trifluoromethyl)imidazo[1,2-a]pyridine], the IC50 was 100 to 1000 nM.

`Cc1noc([C@H]2CN(c3ccnc(-c4cnc5ccc(C(F)F)cn45)n3)C[C@@H](C)O2)n1` [I-497, (2R,6R)-4-(2-(6-(difluoromethyl)imidazo[1,2-a]pyridin-3-yl)pyrimidin-4-yl)-2-methyl-6-(3-methyl-1,2,4-oxadiazol-5-yl)morpholine] returned an IC50 of 100 to 1000 nM.

Turning to `Fc1cccc(CN2CCN(c3ccnc(-c4cnc5ccc(C(F)(F)F)cn45)n3)CC2c2cn[nH]c2)c1` (stereo not drawn) [I-458, 3-(4-(4-(3-fluorobenzyl)-3-(1H-pyrazol-4-yl)piperazin-1-yl)pyrimidin-2-yl)-6-(trifluoromethyl)imidazo[1,2-a]pyridine], the IC50 was in the range of 10 to 100 nM.

`Cc1cnc(N2C[C@H](C)C[C@H](N=S(C)(C)=O)C2)nc1-c1cnc2ccc(Cl)cn12` [I-167, (((3 S,5R)-1-(4-(6-chloroimidazo[1,2-a]pyridin-3-yl)-5-methylpyrimidin-2-yl)-5-methylpiperidin-3-yl)imino)dimethyl-λ6-sulfanone] had an IC50 of 100 to 1000 nM.

Take `CC(C)(C)OC(=O)NC1CN(c2ccnc(-c3cnc4ccc(Cl)cn34)n2)CC[C@H]1O` (stereo in doubt) [I-243, tert-butyl ((3R,4R)-1-(2-(6-chloroimidazo[1,2-a]pyridin-3-yl)pyrimidin-4-yl)-4-hydroxypiperidin-3-yl)carbamate]: the IC50 lay in the range of 100 to 1000 nM.

The assay is the same for the next values; noted with them: Ki(app); 280 μM ATP, 200 μM (RS)7 peptide, 4 nM GCN2, 25° C.
Regarding `FC(F)(F)c1ccc2ncc(-c3nccc(N4CCCC(c5cn[nH]c5)C4)n3)n2c1` (stereo not drawn) [I-101, 4-[3-(1H-pyrazol-4-yl)piperidin-1-yl]-2-[6-(trifluoromethyl)imidazo[1,2-a]pyridin-3-yl]pyrimidine], the Ki is below 10 nM.

The compound `Cc1noc([C@@H]2CN(c3ccnc(-c4cnc5ccc(C(F)(F)F)cn45)n3)C[C@H](C)O2)n1` (stereo in doubt) [I-89, 2-methyl-6-(3-methyl-1,2,4-oxadiazol-5-yl)-4-{2-[6-(trifluoromethyl)imidazo[1,2-a]pyridin-3-yl]pyrimidin-4-yl}morpholine] gave a Ki of 10 to 100 nM.

As for `Cc1noc([C@@H]2CN(c3ccnc(-c4cnc5ccc(C#N)cn45)n3)C[C@H](C)O2)n1` [I-91, 3-{4-[(2S,6S)-2-methyl-6-(3-methyl-1,2,4-oxadiazol-5-yl)morpholin-4-yl]pyrimidin-2-yl}imidazo[1,2-a]pyridine-6-carbonitrile], the Ki is 10 to 100 nM.

In turn, `Cc1nnc([C@@H]2CN(c3ccnc(-c4cnc5ccc(Cl)cn45)n3)C[C@H](C)O2)o1` (relative stereo) [I-95, cis-4-(2-{6-chloroimidazo[1,2-a]pyridin-3-yl}pyrimidin-4-yl)-2-methyl-6-(5-methyl-1,3,4-oxadiazol-2-yl)morpholine] showed a Ki of 10 to 100 nM.
